Consider three molecules from ChEMBL document CHEMBL5727188, “GLS1 inhibitors for treating disease” (2019).

pIC50: −log10 of the molar value.

The target in the assay is T1, Glutaminase kidney isoform, mitochondrial (Homo sapiens, UniProt O94925).
T1 sequence (O94925 whole entry): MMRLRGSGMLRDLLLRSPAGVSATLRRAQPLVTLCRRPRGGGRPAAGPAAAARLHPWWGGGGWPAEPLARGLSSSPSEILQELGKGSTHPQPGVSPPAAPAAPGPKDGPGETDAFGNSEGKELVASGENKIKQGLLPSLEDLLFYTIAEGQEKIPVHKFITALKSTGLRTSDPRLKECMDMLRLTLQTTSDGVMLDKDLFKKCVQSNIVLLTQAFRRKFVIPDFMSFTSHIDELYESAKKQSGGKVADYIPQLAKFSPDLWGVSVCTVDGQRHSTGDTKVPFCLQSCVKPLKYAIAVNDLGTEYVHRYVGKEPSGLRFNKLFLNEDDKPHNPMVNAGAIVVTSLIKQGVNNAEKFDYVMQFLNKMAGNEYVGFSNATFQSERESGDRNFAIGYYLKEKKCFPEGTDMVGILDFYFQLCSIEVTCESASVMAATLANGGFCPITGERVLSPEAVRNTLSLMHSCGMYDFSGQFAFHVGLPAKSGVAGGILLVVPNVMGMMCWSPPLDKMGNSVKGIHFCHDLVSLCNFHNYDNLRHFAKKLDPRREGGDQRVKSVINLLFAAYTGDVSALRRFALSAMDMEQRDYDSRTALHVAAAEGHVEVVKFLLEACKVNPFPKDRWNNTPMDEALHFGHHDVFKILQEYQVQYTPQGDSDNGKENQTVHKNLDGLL
The experiment in a line: Enzymatic Activity Assay: The inhibition of purified recombinant human GAC by varying concentrations of inhibitors is assessed via a dual-coupled enzymatic assay. The glutamate produced by the glutaminase reaction is used by glutamate oxidase to produce α-ketoglutarate, ammonia, and hydrogen peroxide, with this hydrogen peroxide subsequently being used by horseradish peroxidase to produce resorufin in the presence of Amplex UltraRed. The assay buffer consisted of 50 mM Hepes (pH 7.4), 0.25 mM EDTA and 0.1 mM Triton X-100. GAC was incubated with potassium phosphate (10 minutes at room temperature) prior to incubation with inhibitor (10 minutes at room temperature). The final reaction conditions were as follows: 2 nM GAC, 50 mM potassium phosphate, 100 mU/mL glutamate oxidase (Sigma), 1 mM glutamine (Sigma), 100 mU/mL horseradish peroxidase (Sigma), 75 μM Amplex UltraRed (Life Technologies), and 1% (v/v) DMSO. The production of resorufin was monitored on a Perkin Elmer Envision plate reader (excitation 530 nm, emission 590 nm) either in a kinetics or endpoint mode (at 20 minutes). IC50 values were calculated using a four-parameter logistic curve fit.

As usually defined, the pIC50 is the negative decadic logarithm of the IC50, by convention in mol/L.

For `COc1cncc(CNC(=O)c2cn(CC(F)CCc3nnc(NC(=O)Cc4cccc(OC(F)(F)F)c4)s3)nn2)c1` (stereo not drawn), the pIC50 is over 7.00.

For `O=C(NCc1cccc(OC(F)(F)F)c1)c1cn(CCCCn2cc(C(=O)NCc3ccc(C(F)(F)F)cn3)nn2)nn1`, the pIC50 is over 7.00.

For the molecule `O=C(NCc1cc(C2CC2)ccn1)c1cn(CCC(F)Cn2cc(C(=O)NCc3cccc(C4CC4)c3)nn2)nn1` (stereo not drawn), the pIC50 is over 7.00.
